The values below are quoted from earlier work in patent US20180271760A1, “Skin Care Compositions” (priority 2017, published 2018).

≈ marks a conversion by molar mass, not a printed value.

For series [1] the following is noted: in 4 weeks.

For the compound `NC(=O)c1cccnc1` [niacinamide], the “reduction of TEWL” value in series [1] was 24%.

Regarding `O=C(O)CCCCCCCC(=O)O` [Azelaic acid], the “solubility in glycerol and glycols” value (glycerol and glycols) is reported as “soluble”. For the setting “water, solubility is pH dependent”, the solubility in water was 2.1 g/L (≈ 11.2 mM).
